Data reported in patent US12171776B2, “Methods for treatment and prophylaxis of HIV and AIDS” (Merck Sharp & Dohme LLC, priority 2016, dated 2024).
Where two headings read alike, the source gives them in different places. One block for each compound: values may come before it.

Assays:
SIVmac251 = assay: Once-weekly efficacy in an SIV infected rhesus monkey model of HIV-infection; format: in vivo; conditions: SIV-infected monkeys
Protocol: Once-Weekly Efficacy in an SIV Infected Rhesus Monkey Model of HIV-Infection.
Oral efficacy studies were conducted at New Iberia Research Center (NIRC), Lafayette, Louisiana Following treatment with BAYTRIL® (5 mg/kg, IM, SID) for 5 days, 20 monkeys were inoculated intravenously with SIVmac251. After 3 days, venous blood was collected every 2-5 days (2× per week) for viral load testing and monitored to stable viremia (wherein 3 consecutive samples were within 3-fold of each other following acute viremia peak). Plasma SIV viral RNA levels were determined using a branched DNA technique at Siemens Diagnostics, Berkeley, California.
Following determination of stable viremia, SIV-infected monkeys were randomized by age, weight, and viral load (n=3 per group). A 2-arm adaptive design was employed in which results from Arm 1 informed the doses for Arm 2. In Arm 1, animals received two once-weekly doses of vehicle, 1.3 mg/kg EFdA, or 13 mg/kg EFdA administered via oral gavage. In Arm 2, animals received 3.9 mg/kg or 18.2 mg/kg EFdA once-weekly or 0.19 mg/kg EFdA once daily for two weeks. Blood (4 ml) was drawn for viral load determinations during the treatment period on days −2, 0 (dosing day), 1, 2, 3, 5, 7 (dosing day), 8, 9, 10, 12, and 14, and then two times per week for 3 weeks during the washout period. In addition, blood (1 ml) was drawn on days 0 (2 hrs post dose), 1 (24 hr post dose), 7 (2 hrs post dose), and 8 (24 hrs post dose) for EFdA pharmacokinetic assessment.
SIV RNA for genotyping was isolated from 140 μl plasma using the QIAamp Viral RNA Mini kit (Cat #52904/52906). The reverse transcriptase region of SIVmac251 was reverse transcribed and amplified using SuperScript III RT/Platinum polymerase, primers S251RTF1 ([…] [2732-2751]) and S251RTR1 ([…] [4206-4225]) and 8 μl template RNA in 20 μl reactions. A nested PCR reaction was carried out using 3.5 μl of the product from the first reaction with TaKaRa LA Taq and primers S251RTF2 ([…] [2750-2769]) and S251RTR2 ([…] [4169-4188]) in 50 μl reactions. After verifying size of ˜1.5 kb by gel electrophoresis, PCR products were purified using ExoSAP-IT (Affymetrix; cat #78201) and adjusted to 15 ng/ml. PCR products (10 μl) were mixed with 5 μl 5 μM sequencing primers S251RTS5 ([…] [2760-2779]), s251RTS6 ([…] [3266-3285]), or S251RTS7 ([…] [3755-3774]). DNA sequencing was carried out at Genewiz (115 Corporate Blvd, South Plainfield, NJ 07080).

[1] = Phase I single rising dose pharmacokinetics of oral EFdA suspension in healthy adults; format: in vivo, human
Protocol: (§1) Pharmacokinetics of EFdA Following Administration of Oral Doses in Healthy Humans.
(§2) The pharmacokinetics of EFdA were evaluated in Phase I single and multiple rising dose studies. In the single dose study, single oral doses of the oral suspension of EFdA from 5 to 400 mg were administered to three alternating panels of 8 healthy adult subjects. Within each panel, subjects were administered single doses of EFdA (n=6) or matching placebo (n=2) in a blinded fashion in up to 3 treatment periods. Panel A received 15 mg and 200 mg. Panel B received 30 mg, 400 mg, and 30 mg with food. Panel C received 100 mg and 5 mg. In the multiple rising dose study, multiple doses of EFdA oral capsules were administered to three panels of 8 healthy adult subjects. Within each panel, subjects were administered three once weekly doses of EFdA (n=6) or matching placebo (n=2) on Days 1, 8, and 15. Panel A received 10 mg. Panel B received 30 mg, and Panel C received 100 mg.

[2] = Phase I multiple rising dose pharmacokinetics, three once weekly oral doses of EFdA capsules in healthy adults; format: in vivo, human; conditions: for plasma concentration (below LLQ): 10 mg dose, all subjects; for Cmax / Tmax / half-life / AUC(0-t) / AUC0-168 hr: healthy fasted subjects; for Cmax / half-life / AUC(0-t) / AUC0-168 hr: geometric mean (%GCV); for Cmax accumulation ratio Week 3/Week 1: geometric mean (min, max); for Tmax / half-life / AUC(0-t): human; for Tmax: po, median (min, max); for AUC(0-t): read-out: AUC0-168 hr
Protocol: as §1, §2

HIV-1 = tested on: HIV-1
Text: The single dose monotherapy efficacy of EFDA is currently being evaluated in HIV-1 patients naïve to anti-retroviral treatment.

SIV = conditions: PBMCs isolated from uninfected monkeys 24 hr after drug administration; Stoddart et al. 2015; cited from earlier work
[3] = in vitro; lymphoid derived cell lines and peripheral blood mononuclear cells; Stoddart et al. 2015; cited from earlier work
[4] = EFdA in plasma, 30 mg oral once weekly, Week 3
[5] = EFdA in plasma, 100 mg oral once weekly, Week 3
[6] = single 10 mg dose, HIV-1 patients, plasma HIV-1 RNA, N=6
[7] = single 10 mg dose, adjusted by pooled historical placebo
[8] = EFdA-TP in PBMCs, EFdA 10 mg oral once weekly, Week 1
[9] = EFdA-TP in PBMCs, EFdA 30 mg oral once weekly, Week 1
[10] = EFdA-TP in PBMCs, EFdA 30 mg oral once weekly, Week 3
[11] = EFdA-TP in PBMCs, EFdA 100 mg oral once weekly, Week 1
[12] = EFdA-TP in PBMCs, EFdA 100 mg oral once weekly, Week 3
[13] = PBMCs, following multiple doses of 30 mg and 100 mg

Structure (SMILES): C#C[C@]1(CO)O[C@@H](n2cnc3c(N)nc(F)nc32)C[C@@H]1O [EFdA, 4′-Ethynyl-2-fluoro-2′-deoxyadenosine]
VL suppression maintained (SIVmac251; 3.9 mg/kg QW oral, from Day 7 to Day 14): 7 days
VL drop (SIVmac251; 3.9 to 18.2 mg/kg QW oral): close to maximal
VL during the wash-out period (SIVmac251; after cessation of dosing): dose-dependent VL rebound
control of viremia (SIVmac251; once-weekly oral versus once-daily treatment): can control viremia with once-weekly oral administration as well as once-daily treatment
effect of food on intracellular pharmacokinetics ([1]; 30 mg with food, high-fat meal, single dose): largely unaffected by a high-fat meal
plasma exposure versus dose ([1]; EFdA in plasma, between 5 and 400 mg single oral dose): approximately dose-proportional
median Tmax ([1]; EFdA in plasma, single oral doses 5 to 400 mg, healthy adults): 0.5 h
reduction of plasma Cmax in rapid initial phase ([1]; EFdA in plasma, within the first 6-12 hours, single oral dose): approximately 10 fold
half-life ([1]; human, EFdA in plasma, single oral doses 5 to 400 mg, healthy adults, read-out: apparent terminal half-life, slow terminal phase): 50 to 60 h
plasma concentration (below LLQ) ([2]; at 48 hr post-dose and later on week 1): < 3.41 nM
plasma concentration (below LLQ) ([2]; at 96 hr post-dose or later in week 3): < 3.41 nM
Cmax ([2]; EFdA in plasma, 10 mg oral once weekly, Week 1, read-out: Cmax): 193 nM
Cmax ([2]; EFdA in plasma, 10 mg oral once weekly, Week 3, read-out: Cmax): 241 nM
Cmax accumulation ratio Week 3/Week 1 ([2]; EFdA in plasma, 10 mg oral once weekly): 1.25 (0.70, 1.66)
Cmax ([2]; EFdA in plasma, 30 mg oral once weekly, Week 1, read-out: Cmax): 647 nM
Cmax ([2]; EFdA in plasma, 30 mg oral once weekly, Week 3, read-out: Cmax): 637 nM
Cmax accumulation ratio Week 3/Week 1 ([2]; EFdA in plasma, 30 mg oral once weekly): 0.98 (0.73, 1.44)
Cmax ([2]; EFdA in plasma, 100 mg oral once weekly, Week 1, read-out: Cmax): 1470 nM
Cmax ([2]; EFdA in plasma, 100 mg oral once weekly, Week 3, read-out: Cmax): 1850 nM
Cmax accumulation ratio Week 3/Week 1 ([2]; EFdA in plasma, 100 mg oral once weekly): 1.26 (0.26, 3.59)
exposure versus dose ([2]; EFdA in plasma, 10, 30, 100 mg once weekly): generally dose-proportional
Tmax ([2]; plasma, 10 mg, EFdA in plasma, 10 mg oral once weekly, Week 1): 1 h
Tmax ([2]; plasma, 10 mg, EFdA in plasma, 10 mg oral once weekly, Week 3): 1 h
Tmax ([2]; plasma, 30 mg, EFdA in plasma, 30 mg oral once weekly, Week 1): 1 h
Tmax ([2]; plasma, 30 mg, EFdA in plasma, 30 mg oral once weekly, Week 3): 1 h
Tmax ([2]; plasma, 100 mg, EFdA in plasma, 100 mg oral once weekly, Week 1): 2 h
Tmax ([2]; plasma, 100 mg, EFdA in plasma, 100 mg oral once weekly, Week 3): 1 h
half-life [2, 4]: 74.1 h
AUC(0-t) [2, 4]: 3.97 µM·h
half-life [2, 5]: 87.1 h
AUC(0-t) [2, 5]: 12 µM·h
accumulation of EFdA in plasma ([2]; plasma, multiple once weekly doses): little to no accumulation
Change from Baseline in Viral Load, Max (HIV-1; [6]): −1.31 log10 copies/mL
Change from Baseline in Viral Load, Median (HIV-1; [6]): −1.63 log10 copies/mL
Change from Baseline in Viral Load, Min (HIV-1; [6]): −1.97 log10 copies/mL
Change from Baseline in Viral Load, LS mean (95% CI) (HIV-1; single 10 mg dose, HIV-1 patients, plasma HIV-1 RNA, N=6, LDA model): −1.67 (−1.87, −1.47) log10 copies/mL
PP = Posterior Probability of true mean difference in plasma HIV-1 RNA reduction from baseline between EFDA and placebo at least 0.5 log10 copies/mL (HIV-1; [7]): >99.9%
Placebo Corrected Change from Baseline in Viral Load, Posterior mean (HIV-1; [7]): −1.64 log10 copies/mL
mean (95% CI) placebo adjusted VL reduction (HIV-1; single 10 mg dose, at 168 hours post-dose, HIV-1 patients): 1.67 log 10
recrudescence of viral load (HIV-1; single 10 mg dose, through Day 10): no evidence of recrudescence
mean VL reduction (HIV-1; single 10 mg dose, through Day 10, HIV-1 patients): 1.78 log 10
tolerability (HIV-1; single 10-mg dose, HIV-1 patients, limited number of mild/moderate adverse experiences): generally well tolerated
susceptibility of PBMCs to SIV infection (SIV): refractory to SIV infection

exposure versus dose ([2]; EFdA-TP in PBMC, EFdA 10, 30, 100 mg once weekly): generally dose-proportional
AUC0-168 hr [2, 8]: 341 (21.2) hr * pmo1/10^6 cells
Cmax [2, 8]: 3.78 (15.3) pmo1/10^6 cells
AUC0-168 hr [2, 9]: 1160 (41.5) hr * pmo1/10^6 cells
Cmax [2, 9]: 13.2 (51.3) pmo1/10^6 cells
AUC0-168 hr [2, 10]: 1570 (12.3) hr * pmo1/10^6 cells
Cmax [2, 10]: 19.6 (13.7) pmo1/10^6 cells
AUC0-168 hr [2, 11]: 3020 (31.3) hr * pmo1/10^6 cells
Cmax [2, 11]: 27.9 (21.2) pmo1/10^6 cells
AUC0-168 hr [2, 12]: 4580 (17.6) hr * pmo1/10^6 cells
Cmax [2, 12]: 43.0 (16.7) pmo1/10^6 cells
accumulation of EFdA-TP AUC0-168hr and Cmax [2, 13]: modest degree of accumulation
accumulation of EFdA-TP C168hr [2, 13]: little to no accumulation
Structure (SMILES): C#C[C@]1(COP(=O)(O)OP(=O)(O)OP(=O)(O)O)O[C@@H](n2cnc3c(N)nc(F)nc32)C[C@@H]1O [EFdA-TP, 4′-ethynyl-2-fluoro-2′-deoxyadenosine triphosphate]
intracellular half-life [3]: exceeds 72 hrs
